Test results as given in article PMC9516332 (Frontiers in Oncology, 2022).
Read-outs that look alike come from different tables or passages of the source.

Key:
[1] = target: panel of 255 wild-type kinases (Homo sapiens, UniProt O75582); experiment: Kinase panel profiling at 1 µmol/L (MSA or IMAP), percentage inhibition; type: biochemical; details: MSK1; 1 µmol/L single concentration; read-out: %-inhibition, MSK1
[2] = target: panel of 255 wild-type kinases (Homo sapiens, UniProt P22607); experiment: as above; type: biochemical; details: kinase FGFR3; 1 µmol/L single concentration; read-out: %-inhibition at 1 µmol/L, FGFR3
[3] = target: panel of 255 wild-type kinases (Homo sapiens, UniProt P45983); experiment: as above; type: biochemical; details: kinase JNK1; 1 µmol/L single concentration; read-out: %-inhibition at 1 µmol/L, JNK1
[4] = target: panel of 255 wild-type kinases (Homo sapiens, UniProt P49760); experiment: as above; type: biochemical; details: kinase CLK2; 1 µmol/L single concentration; read-out: %-inhibition at 1 µmol/L, CLK2
[5] = target: panel of 255 wild-type kinases (Homo sapiens, UniProt P50613); experiment: as above; type: biochemical; details: CDK7/CycH/MAT1 kinase assay; 1 µmol/L single concentration; read-out: %-inhibition CDK7/CycH/MAT1
[6] = target: panel of 255 wild-type kinases (Homo sapiens, UniProt Q00526); experiment: as above; type: biochemical; details: CDK3/CycE1 kinase assay; 1 µmol/L single concentration; read-out: %-inhibition CDK3/CycE1
[7] = target: panel of 255 wild-type kinases (Homo sapiens, UniProt Q13177); experiment: as above; type: biochemical; details: PAK2; 1 µmol/L single concentration; read-out: %-inhibition, PAK2
[8] = target: panel of 255 wild-type kinases (Homo sapiens, UniProt Q96RG2); experiment: as above; type: biochemical; details: PASK; 1 µmol/L single concentration; read-out: %-inhibition, PASK
[9] = target: panel of 255 wild-type kinases (Homo sapiens, UniProt Q9HBH9); experiment: as above; type: biochemical; details: MNK2; 1 µmol/L single concentration; read-out: %-inhibition, MNK2
AP-1060 (ETV6-NTRK3) = experiment: Cell viability assay; details: read-out: IC50 in cell proliferation assay
134 cancer cell lines = experiment: Cell viability assay (ATPlite, 72 hours), IC50 on cancer cell line panel

COc1ccc(CN2C3CC2CN(c2ccc(-c4cc(OCC(C)(C)O)cn5ncc(C#N)c45)cn2)C3)cn1 [selpercatinib]
inhibition at 1 µM [1]: 24% | inhibition at 1 µM [2]: 95% | inhibition at 1 µM [3]: -5.39% | inhibition at 1 µM [4]: -2.3% | inhibition at 1 µM [5]: 6% | inhibition at 1 µM [6]: 3.49% | inhibition at 1 µM [7]: 5% | inhibition at 1 µM [8]: -2.29% | inhibition at 1 µM [9]: 37% | IC50 (AP-1060 (ETV6-NTRK3)): 3.96 µM | IC50 (134 cancer cell lines; HEC-6, read-out: IC50 in cell proliferation assay, HEC-6 cell line (EGFR p.A289V)): > 31.6 µM | IC50 (134 cancer cell lines; Homo sapiens, 769-P, read-out: IC50 in cell proliferation assay, cell line 769-P): 5.72 µM | IC50 (134 cancer cell lines; Homo sapiens, 786-0, read-out: IC50 in cell proliferation assay, cell line 786-O): 7.5 µM | IC50 (134 cancer cell lines; Homo sapiens, A 172, read-out: IC50 in cell proliferation assay, cell line A-172): 1.33 µM | IC50 (134 cancer cell lines; Homo sapiens, A204, read-out: IC50 in cell proliferation assay, cell line A-204): 2.47 µM | IC50 (134 cancer cell lines; Homo sapiens, A498, read-out: IC50 in cell proliferation assay, cell line A-498): 6.25 µM | IC50 (134 cancer cell lines; Homo sapiens, A549, read-out: IC50 in cell proliferation assay, cell line A-549): 3.75 µM | IC50 (134 cancer cell lines; Homo sapiens, A704, read-out: IC50 in cell proliferation assay, cell line A-704): 2.74 µM | IC50 (134 cancer cell lines; Homo sapiens, A-375, read-out: IC50 in cell proliferation assay, cell line A-375 (BRAF p.V600E)): 4.28 µM | IC50 (134 cancer cell lines; Homo sapiens, A-427, read-out: IC50 in cell proliferation assay, cell line A-427): 1.53 µM | IC50 (134 cancer cell lines; Homo sapiens, ACHN, read-out: IC50 in cell proliferation assay, cell line ACHN): 2.78 µM | IC50 (134 cancer cell lines; Homo sapiens, AN3-CA, read-out: IC50 in cell proliferation assay, cell line AN3-CA (FGFR2 p.N549K)): 0.576 µM | IC50 (134 cancer cell lines; Homo sapiens, ASPC1, read-out: IC50 in cell proliferation assay, cell line AsPC-1): > 31.6 µM | IC50 (134 cancer cell lines; Homo sapiens, AU565, read-out: IC50 in cell proliferation assay, cell line AU565 (ERBB2 amplification)): 2.85 µM | IC50 (134 cancer cell lines; Homo sapiens, BT-20, read-out: IC50 in cell proliferation assay, cell line BT-20): 3.36 µM | IC50 (134 cancer cell lines; Homo sapiens, BT-474, read-out: IC50 in cell proliferation assay, cell line BT-474 (ERBB2 amplification)): 28.7 µM | IC50 (134 cancer cell lines; Homo sapiens, BT-549, read-out: IC50 in cell proliferation assay, cell line BT-549): 3.82 µM | IC50 (134 cancer cell lines; Homo sapiens, BXPC-3, read-out: IC50 in cell proliferation assay, cell line BxPC-3): 3.95 µM | IC50 (134 cancer cell lines; Homo sapiens, C-33-A, read-out: IC50 in cell proliferation assay, cell line C-33 A): 2.85 µM | IC50 (134 cancer cell lines; Homo sapiens, CAL-27, read-out: IC50 in cell proliferation assay, cell line CAL-27): 4.41 µM | IC50 (134 cancer cell lines; Homo sapiens, CCF-STTG1, read-out: IC50 in cell proliferation assay, cell line CCF-STTG1): 7.96 µM | IC50 (134 cancer cell lines; Homo sapiens, CCRF-CEM, read-out: IC50 in cell proliferation assay, cell line CCRF-CEM): 3.45 µM | IC50 (134 cancer cell lines; Homo sapiens, COLO 205, read-out: IC50 in cell proliferation assay, cell line COLO 205 (BRAF p.V600E)): 4.42 µM | IC50 (134 cancer cell lines; Homo sapiens, COLO-829, read-out: IC50 in cell proliferation assay, cell line COLO 829 (BRAF p.V600E)): 10.7 µM | IC50 (134 cancer cell lines; Homo sapiens, DLD-1, read-out: IC50 in cell proliferation assay, cell line DLD-1): 8.43 µM | IC50 (134 cancer cell lines; Homo sapiens, DU-4475, read-out: IC50 in cell proliferation assay, cell line DU4475 (BRAF p.V600E)): 6.24 µM | IC50 (134 cancer cell lines; Homo sapiens, Daoy, read-out: IC50 in cell proliferation assay, cell line Daoy): 3.17 µM | IC50 (134 cancer cell lines; Homo sapiens, DoTc2-4510, read-out: IC50 in cell proliferation assay, cell line DoTc2 4510): 4.18 µM | IC50 (134 cancer cell lines; Homo sapiens, EOL1, read-out: IC50 in cell proliferation assay, cell line EoL-1 (FIP1L1-PDGFRA)): 0.29 µM | IC50 (134 cancer cell lines; Homo sapiens, FaDu, read-out: IC50 in cell proliferation assay, cell line FaDu): 4.82 µM | IC50 (134 cancer cell lines; Homo sapiens, G-361, read-out: IC50 in cell proliferation assay, cell line G-361 (BRAF p.V600E)): 5.87 µM | IC50 (134 cancer cell lines; Homo sapiens, HCC827, read-out: IC50 in cell proliferation assay, cell line HCC827 (EGFR exon19del)): 13.5 µM | IC50 (134 cancer cell lines; Homo sapiens, HCC4006, read-out: IC50 in cell proliferation assay, cell line HCC4006 (EGFR exon19del)): 6.75 µM | IC50 (134 cancer cell lines; Homo sapiens, HCT-15, read-out: IC50 in cell proliferation assay, cell line HCT 15): 10.7 µM | IC50 (134 cancer cell lines; Homo sapiens, HCT-116, read-out: IC50 in cell proliferation assay, cell line HCT 116): 14.9 µM | IC50 (134 cancer cell lines; Homo sapiens, HEC-1, read-out: IC50 in cell proliferation assay, HEC-1 cell line): 8.9 µM | IC50 (134 cancer cell lines; Homo sapiens, HEC-1B, read-out: IC50 in cell proliferation assay, HEC-1-B cell line (EGFR p.A864V)): 2.07 µM | IC50 (134 cancer cell lines; Homo sapiens, HL-60, read-out: IC50 in cell proliferation assay, HL-60 cell line): 5.79 µM | IC50 (134 cancer cell lines; Homo sapiens, HT, read-out: IC50 in cell proliferation assay, HT cell line): 4.86 µM | IC50 (134 cancer cell lines; Homo sapiens, HT-1080, read-out: IC50 in cell proliferation assay, HT-1080 cell line): 5.16 µM | IC50 (134 cancer cell lines; Homo sapiens, Hs746T, read-out: IC50 in cell proliferation assay, Hs 746.T cell line (MET exon14skip + amplification)): 28.1 µM | IC50 (134 cancer cell lines; Homo sapiens, Hs-578T, read-out: IC50 in cell proliferation assay, Hs 578T cell line): 3.61 µM | IC50 (134 cancer cell lines; Homo sapiens, HuTu80, read-out: IC50 in cell proliferation assay, HuTu 80 cell line): 1.35 µM | IC50 (134 cancer cell lines; Homo sapiens, J82, read-out: IC50 in cell proliferation assay, J82 cell line): 3.3 µM | IC50 (134 cancer cell lines; Homo sapiens, Jurkat E6.1, read-out: IC50 in cell proliferation assay, Jurkat E6.1 cell line): 4.03 µM | IC50 (134 cancer cell lines; Homo sapiens, K562, read-out: IC50 in cell proliferation assay, K-562 cell line): 5.5 µM | IC50 (134 cancer cell lines; Homo sapiens, KATO III, read-out: IC50 in cell proliferation assay, KATO III cell line (FGFR2 amplification)): 0.241 µM | IC50 (134 cancer cell lines; Homo sapiens, KG-1, read-out: IC50 in cell proliferation assay, KG-1 cell line (FGFR1OP2-FGFR1)): 0.227 µM | IC50 (134 cancer cell lines; Homo sapiens, KLE, read-out: IC50 in cell proliferation assay, KLE cell line): 5.6 µM | IC50 (134 cancer cell lines; Homo sapiens, KMS-11, read-out: IC50 in cell proliferation assay, KMS-11 cell line (FGFR3 p.Y373C)): 0.661 µM | IC50 (134 cancer cell lines; Homo sapiens, KU812, read-out: IC50 in cell proliferation assay, Ku812 cell line): 3.54 µM | IC50 (134 cancer cell lines; Homo sapiens, Kasumi 1, read-out: IC50 in cell proliferation assay, Kasumi-1 cell line (KIT p.N822K)): 0.277 µM | IC50 (134 cancer cell lines; Homo sapiens, LC-2-ad, read-out: IC50 in cell proliferation assay, LC-2/ad cell line (CCDC6-RET)): 0.018 µM | IC50 (134 cancer cell lines; Homo sapiens, LNCaP-Clone-FGC, read-out: IC50 in cell proliferation assay, LNCaP clone FGC cell line): 16.8 µM | IC50 (134 cancer cell lines; Homo sapiens, LS174T, read-out: IC50 in cell proliferation assay, LS174T cell line): 4.21 µM | IC50 (134 cancer cell lines; Homo sapiens, LS-411N, read-out: IC50 in cell proliferation assay, LS411N cell line (BRAF p.V600E)): 3.76 µM | IC50 (134 cancer cell lines; Homo sapiens, LoVo, read-out: IC50 in cell proliferation assay, LoVo cell line): 0.767 µM | IC50 (134 cancer cell lines; Homo sapiens, MCF7, read-out: IC50 in cell proliferation assay, MCF-7 cell line): > 31.6 µM | IC50 (134 cancer cell lines; Homo sapiens, MDA-MB-231, read-out: IC50 in cell proliferation assay, MDA-MB-231 cell line): 28 µM | IC50 (134 cancer cell lines; Homo sapiens, MDA-MB-453, read-out: IC50 in cell proliferation assay, MDA-MB-453 cell line): > 31.6 µM | IC50 (134 cancer cell lines; Homo sapiens, MDA-MB-468, read-out: IC50 in cell proliferation assay, MDA-MB-468 cell line): 5.5 µM
